Experiment in all cases: G' assay (10 uM PL peptide), results of TABLE 7 and TABLE 12
Holding throughout (assay type): binding

Experiment [1] deals with T1, PDZ protein (GST-PDZ fusion) (Homo sapiens, UniProt O15085).
T1 construct: made in house; host or cells: E. coli (DH5alpha, BL21 or JM109)
To be noted: PDZ KIAA0380, PDZ Domain 1. The essentials:
(§1)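 Same steps as the G-zero format, apart from a peptide concentration of 10 uM in place of 20 uM in step 2. Amino-terminally biotinylated PL peptides bind GST-PDZ fusions, and retained peptide is quantified by 450 nm absorbance.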

Experiment [2] addresses T2, PDZ protein (GST-PDZ fusion) (Homo sapiens, UniProt O14745).
T2 construct: made in house; host or cells: E. coli (DH5alpha, BL21 or JM109)
T2 sequence (O14745 1-358): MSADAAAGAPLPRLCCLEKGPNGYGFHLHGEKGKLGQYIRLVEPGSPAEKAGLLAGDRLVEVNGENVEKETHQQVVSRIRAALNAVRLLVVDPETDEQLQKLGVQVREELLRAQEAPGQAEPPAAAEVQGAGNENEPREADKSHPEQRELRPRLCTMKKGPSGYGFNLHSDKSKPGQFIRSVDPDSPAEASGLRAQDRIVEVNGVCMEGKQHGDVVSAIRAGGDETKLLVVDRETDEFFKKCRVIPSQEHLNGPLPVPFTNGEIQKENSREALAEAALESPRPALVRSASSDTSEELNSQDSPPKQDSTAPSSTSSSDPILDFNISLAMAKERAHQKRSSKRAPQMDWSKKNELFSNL
The method, boiled down:
as §1

Experiment [3] addresses T3, PDZ protein (GST-PDZ fusion) (Homo sapiens, UniProt Q9BYB0).
T3 construct: made in house; host or cells: E. coli (DH5alpha, BL21 or JM109)
The settings on record: PDZ SHANK3, PDZ Domain 1. The method, boiled down: as §1

Experiment [4] has as its target T4, PDZ protein (GST-PDZ fusion) (Homo sapiens, UniProt Q9HD26).
T4 construct: made in house; host or cells: E. coli (DH5alpha, BL21 or JM109)
To be noted: PDZ PIST, PDZ Domain 1. The essentials: as §1

Experiment [5] deals with T5, PDZ protein (GST-PDZ fusion) (Homo sapiens, UniProt P29475).
T5 construct: made in house; host or cells: E. coli (DH5alpha, BL21 or JM109)
To be noted: PDZ NOS1, PDZ Domain 1. The method, boiled down:
as §1

Ends that are not written are not given here. Peptide text beside a SMILES is read from it. * marks the point of attachment. Biotin = O=C1N[C@H]2[C@H](CS[C@H]2CCCCC(=O)*)N1

T3 sequence (Q9BYB0 whole entry, the tested form may be a part): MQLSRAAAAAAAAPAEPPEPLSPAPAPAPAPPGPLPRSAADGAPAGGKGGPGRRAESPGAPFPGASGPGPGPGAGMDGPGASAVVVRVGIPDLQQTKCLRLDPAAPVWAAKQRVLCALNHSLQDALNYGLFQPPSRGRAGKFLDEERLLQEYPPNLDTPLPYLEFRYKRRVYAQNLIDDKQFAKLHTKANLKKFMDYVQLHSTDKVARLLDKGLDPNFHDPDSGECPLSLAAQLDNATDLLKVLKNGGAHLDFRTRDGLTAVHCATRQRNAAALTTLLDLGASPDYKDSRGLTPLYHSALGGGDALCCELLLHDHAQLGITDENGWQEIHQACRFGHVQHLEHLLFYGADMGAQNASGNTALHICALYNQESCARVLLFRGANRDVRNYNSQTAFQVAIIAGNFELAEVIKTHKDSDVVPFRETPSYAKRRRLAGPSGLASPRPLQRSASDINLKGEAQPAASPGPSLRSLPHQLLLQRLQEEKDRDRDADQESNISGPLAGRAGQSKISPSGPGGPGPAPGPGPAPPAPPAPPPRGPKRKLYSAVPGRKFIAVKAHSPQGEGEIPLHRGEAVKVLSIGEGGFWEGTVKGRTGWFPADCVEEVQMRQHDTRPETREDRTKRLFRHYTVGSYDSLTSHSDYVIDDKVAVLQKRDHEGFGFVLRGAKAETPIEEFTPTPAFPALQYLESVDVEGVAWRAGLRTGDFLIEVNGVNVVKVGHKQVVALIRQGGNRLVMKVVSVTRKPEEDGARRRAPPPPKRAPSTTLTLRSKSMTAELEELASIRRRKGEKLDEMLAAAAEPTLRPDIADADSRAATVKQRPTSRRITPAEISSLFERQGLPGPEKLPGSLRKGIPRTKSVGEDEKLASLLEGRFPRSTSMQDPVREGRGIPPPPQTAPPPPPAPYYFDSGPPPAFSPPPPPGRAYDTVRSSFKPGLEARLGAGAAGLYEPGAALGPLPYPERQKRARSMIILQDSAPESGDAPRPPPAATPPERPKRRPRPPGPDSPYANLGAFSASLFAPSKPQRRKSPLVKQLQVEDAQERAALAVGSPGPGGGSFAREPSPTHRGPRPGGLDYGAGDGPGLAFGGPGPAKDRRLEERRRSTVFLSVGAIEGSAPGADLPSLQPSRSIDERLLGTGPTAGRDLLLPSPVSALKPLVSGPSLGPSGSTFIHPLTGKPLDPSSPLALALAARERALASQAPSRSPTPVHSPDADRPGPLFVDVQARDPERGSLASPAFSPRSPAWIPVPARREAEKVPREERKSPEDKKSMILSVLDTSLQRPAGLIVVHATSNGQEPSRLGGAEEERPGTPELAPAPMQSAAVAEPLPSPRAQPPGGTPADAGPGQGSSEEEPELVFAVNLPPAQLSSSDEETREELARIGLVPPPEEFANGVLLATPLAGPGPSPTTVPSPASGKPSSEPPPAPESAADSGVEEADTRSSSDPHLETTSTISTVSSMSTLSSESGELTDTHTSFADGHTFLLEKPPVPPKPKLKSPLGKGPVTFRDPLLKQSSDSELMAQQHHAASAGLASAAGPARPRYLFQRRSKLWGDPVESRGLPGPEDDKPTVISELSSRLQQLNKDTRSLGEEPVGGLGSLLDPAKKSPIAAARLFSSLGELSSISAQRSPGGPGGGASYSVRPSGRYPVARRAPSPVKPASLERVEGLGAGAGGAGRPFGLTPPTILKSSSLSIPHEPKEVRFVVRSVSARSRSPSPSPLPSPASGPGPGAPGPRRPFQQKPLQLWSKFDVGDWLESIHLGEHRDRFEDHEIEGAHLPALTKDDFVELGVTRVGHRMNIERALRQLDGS
T1 sequence (O15085 whole entry, the tested form may be a part): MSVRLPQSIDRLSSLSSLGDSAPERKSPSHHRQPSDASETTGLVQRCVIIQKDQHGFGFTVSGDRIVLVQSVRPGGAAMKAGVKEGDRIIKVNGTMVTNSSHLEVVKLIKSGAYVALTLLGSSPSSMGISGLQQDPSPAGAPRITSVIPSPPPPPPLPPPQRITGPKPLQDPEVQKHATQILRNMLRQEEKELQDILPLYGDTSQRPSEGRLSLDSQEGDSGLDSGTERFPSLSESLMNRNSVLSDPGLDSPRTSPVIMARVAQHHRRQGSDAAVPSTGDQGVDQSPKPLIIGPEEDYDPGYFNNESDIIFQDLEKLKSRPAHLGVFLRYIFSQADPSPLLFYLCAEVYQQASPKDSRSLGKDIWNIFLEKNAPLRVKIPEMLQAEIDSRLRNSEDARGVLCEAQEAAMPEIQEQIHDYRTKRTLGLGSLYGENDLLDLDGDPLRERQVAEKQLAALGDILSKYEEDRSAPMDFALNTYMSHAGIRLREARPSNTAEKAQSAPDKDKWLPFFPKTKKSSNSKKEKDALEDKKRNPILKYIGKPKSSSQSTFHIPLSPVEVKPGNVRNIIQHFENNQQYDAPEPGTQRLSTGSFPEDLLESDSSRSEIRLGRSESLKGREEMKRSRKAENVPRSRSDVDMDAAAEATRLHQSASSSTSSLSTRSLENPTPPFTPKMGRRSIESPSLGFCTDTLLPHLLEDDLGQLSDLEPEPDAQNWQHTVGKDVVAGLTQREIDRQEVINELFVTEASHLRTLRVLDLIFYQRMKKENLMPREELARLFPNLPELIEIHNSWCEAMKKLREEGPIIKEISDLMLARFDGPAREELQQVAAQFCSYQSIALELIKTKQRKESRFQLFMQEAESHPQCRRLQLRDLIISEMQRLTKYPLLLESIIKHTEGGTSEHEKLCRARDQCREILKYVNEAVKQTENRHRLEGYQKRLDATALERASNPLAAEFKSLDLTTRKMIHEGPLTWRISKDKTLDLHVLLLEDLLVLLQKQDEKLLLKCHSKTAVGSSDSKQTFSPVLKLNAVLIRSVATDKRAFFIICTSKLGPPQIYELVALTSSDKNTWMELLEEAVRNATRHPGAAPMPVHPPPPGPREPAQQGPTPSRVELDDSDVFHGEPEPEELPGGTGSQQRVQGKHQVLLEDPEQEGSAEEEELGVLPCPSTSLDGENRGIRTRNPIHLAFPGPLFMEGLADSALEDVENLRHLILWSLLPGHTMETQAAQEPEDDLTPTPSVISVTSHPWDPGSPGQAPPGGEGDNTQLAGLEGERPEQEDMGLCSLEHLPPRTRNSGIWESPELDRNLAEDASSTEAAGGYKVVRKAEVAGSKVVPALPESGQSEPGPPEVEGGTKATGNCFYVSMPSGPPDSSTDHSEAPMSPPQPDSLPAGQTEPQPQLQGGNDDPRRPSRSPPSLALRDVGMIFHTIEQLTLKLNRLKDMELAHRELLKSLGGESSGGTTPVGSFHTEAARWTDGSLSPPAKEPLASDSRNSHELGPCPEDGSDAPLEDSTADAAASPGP
T5 sequence (P29475 whole entry, the tested form may be a part): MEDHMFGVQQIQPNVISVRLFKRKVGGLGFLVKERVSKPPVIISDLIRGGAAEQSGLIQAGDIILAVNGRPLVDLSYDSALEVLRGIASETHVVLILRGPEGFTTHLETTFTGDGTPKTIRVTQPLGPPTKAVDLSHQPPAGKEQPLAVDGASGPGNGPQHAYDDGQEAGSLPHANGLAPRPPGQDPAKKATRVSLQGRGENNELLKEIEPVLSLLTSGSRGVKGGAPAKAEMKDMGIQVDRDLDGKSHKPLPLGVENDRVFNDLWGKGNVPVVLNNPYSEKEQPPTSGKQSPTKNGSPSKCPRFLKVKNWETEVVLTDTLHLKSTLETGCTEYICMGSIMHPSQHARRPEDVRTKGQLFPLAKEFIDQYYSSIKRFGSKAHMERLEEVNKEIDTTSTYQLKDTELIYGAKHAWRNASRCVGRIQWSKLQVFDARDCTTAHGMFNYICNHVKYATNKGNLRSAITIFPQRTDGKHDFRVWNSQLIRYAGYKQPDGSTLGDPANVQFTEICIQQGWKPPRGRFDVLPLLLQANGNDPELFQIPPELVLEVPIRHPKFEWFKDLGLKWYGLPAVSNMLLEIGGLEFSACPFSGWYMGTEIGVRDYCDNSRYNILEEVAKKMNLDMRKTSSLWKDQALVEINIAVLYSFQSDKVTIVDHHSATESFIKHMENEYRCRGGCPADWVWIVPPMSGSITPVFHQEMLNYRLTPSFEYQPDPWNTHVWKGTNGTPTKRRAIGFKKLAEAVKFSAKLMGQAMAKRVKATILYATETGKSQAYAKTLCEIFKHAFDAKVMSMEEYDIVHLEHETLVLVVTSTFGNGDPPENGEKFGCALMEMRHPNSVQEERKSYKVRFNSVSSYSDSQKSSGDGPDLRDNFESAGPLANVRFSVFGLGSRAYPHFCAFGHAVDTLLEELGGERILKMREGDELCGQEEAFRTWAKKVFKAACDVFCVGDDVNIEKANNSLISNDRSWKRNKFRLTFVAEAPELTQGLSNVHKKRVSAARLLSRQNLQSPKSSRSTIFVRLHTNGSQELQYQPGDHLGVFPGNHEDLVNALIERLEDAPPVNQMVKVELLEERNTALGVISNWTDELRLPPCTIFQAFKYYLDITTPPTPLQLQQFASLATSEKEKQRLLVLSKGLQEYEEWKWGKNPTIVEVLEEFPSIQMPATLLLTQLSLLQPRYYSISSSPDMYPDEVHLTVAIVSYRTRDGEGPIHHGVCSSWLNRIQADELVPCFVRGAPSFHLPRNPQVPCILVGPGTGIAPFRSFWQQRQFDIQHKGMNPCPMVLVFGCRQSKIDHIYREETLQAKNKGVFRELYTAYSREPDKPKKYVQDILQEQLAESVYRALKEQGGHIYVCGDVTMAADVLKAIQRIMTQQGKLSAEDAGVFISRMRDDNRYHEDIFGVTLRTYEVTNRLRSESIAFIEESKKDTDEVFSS

For `CC(C)C[C@H](NC(=O)[C@H](CCCNC(=N)N)NC(=O)CNC(=O)CNC(=O)[C@H](CCCNC(=N)N)NC(=O)[C@H](C)NC(=O)[C@@H]1CCCN1C(=O)[C@H](CCCNC(=N)N)NC(=O)CNC(=O)CNC(=O)[C@@H](NC(=O)[C@H](C)NC(=O)CCCC[C@@H]1SC[C@@H]2NC(=O)N[C@@H]21)C(C)C)C(=O)N[C@@H](CCC(N)=O)C(=O)NCC(=O)N[C@@H](CCCNC(=N)N)C(=O)N[C@@H](CCCNC(=N)N)C(=O)N[C@@H](CCC(N)=O)C(=O)N[C@H](C(=O)N[C@@H](CCC(N)=O)C(=O)N[C@H](C(=O)O)C(C)C)[C@@H](C)O` [HPV E6 58 (modified)] (Biotin-AVGGRPARGGRLQGRRQTQV-OH; C-terminus assumed), in experiment [1], the Classification was 1 (A450 nm 0-1).
Take “PPATPSPRLALPAHHNATRL (Biotin-PPATPSPRLALPAHHNATRL) [Na+/Pi cotransporter 2]”: the Classification in experiment [2] (PDZ EBP50, PDZ Domain 1) is on record as 5 (A450 nm of 4 more than 2× repeated); in experiment [2] (PDZ EBP50, PDZ Domain 2) it was 2 (A450 nm 1-2); in experiment [3] it was 5 (A450 nm of 4 more than 2× repeated); in experiment [4], 1 (A450 nm 0-1).
`CC(C)C[C@H](NC(=O)[C@H](CC(=O)O)NC(=O)[C@H](CO)NC(=O)[C@H](CCC(=O)O)NC(=O)CNC(=O)[C@H](Cc1ccc(O)cc1)NC(=O)[C@H](CC(C)C)NC(=O)[C@H](C)NC(=O)[C@H](CO)NC(=O)[C@H](CO)NC(=O)[C@H](Cc1ccccc1)NC(=O)[C@H](C)NC(=O)[C@H](C)NC(=O)[C@H](Cc1ccc(O)cc1)NC(=O)[C@H](CC(=O)O)NC(=O)[C@H](CC(C)C)NC(=O)[C@H](C)NC(=O)CNC(=O)[C@@H]1CCCN1C(=O)[C@@H](NC(=O)CCCC[C@@H]1SC[C@@H]2NC(=O)N[C@@H]21)C(C)C)C(=O)O` [a-actinin 2] (Biotin-VPGALDYAAFSSALYGESDL-OH; C-terminus assumed): the Classification in experiment [1] is given as 1 (A450 nm 0-1).
Regarding `CC[C@H](C)[C@H](NC(=O)[C@H](CCC(N)=O)NC(=O)[C@@H](NC(=O)[C@H](Cc1c[nH]cn1)NC(=O)[C@H](CCC(N)=O)NC(=O)[C@H](CC(=O)O)NC(=O)[C@H](CCC(=O)O)NC(=O)[C@H](CC(=O)O)NC(=O)[C@H](Cc1ccccc1)NC(=O)[C@@H]1CCCN1C(=O)[C@H](CCC(=O)O)NC(=O)[C@H](CC(N)=O)NC(=O)[C@H](CCC(=O)O)NC(=O)[C@@H]1CCCN1C(=O)[C@H](CC(=O)O)NC(=O)[C@H](CO)NC(=O)[C@H](CC(=O)O)NC(=O)CCCC[C@@H]1SC[C@@H]2NC(=O)N[C@@H]21)[C@@H](C)O)C(=O)N[C@H](C(=O)N[C@@H](CCCCN)C(=O)N[C@H](C(=O)O)C(C)C)[C@@H](C)O` [PTEN], the Classification in experiment [4] is listed as 1 (A450 nm 0-1).
`CC[C@H](C)[C@H](NC(=O)CNC(=O)[C@H](CO)NC(=O)[C@H](Cc1ccccc1)NC(=O)[C@@H](NC(=O)[C@H](CS)NC(=O)CNC(=O)CNC(=O)[C@H](C)NC(=O)[C@@H]1CCCN1C(=O)[C@@H](NC(=O)[C@@H]1CCCN1C(=O)CCCC[C@@H]1SC[C@@H]2NC(=O)N[C@@H]21)[C@@H](C)CC)[C@@H](C)O)C(=O)N[C@@H](Cc1ccccc1)C(=O)N1CCC[C@H]1C(=O)N[C@H](C(=O)N[C@@H](CC(C)C)C(=O)N[C@H](C(=O)N[C@@H](CO)C(=O)N1CCC[C@H]1C(=O)N[C@@H](CC(C)C)C(=O)O)[C@@H](C)O)[C@@H](C)O` [KIA 1481] (Biotin-PIPAGGCTFSGIFPTLTSPL-OH; C-terminus assumed): the Classification is 2 (A450 nm 1-2) in experiment [2] (PDZ EBP50, PDZ Domain 1); 2 (A450 nm 1-2) in experiment [2] (PDZ EBP50, PDZ Domain 2); 3 (A450 nm 2-3) in experiment [3].
With “ARHRVTSYTSSSVNVSSNL (Biotin-ARHRVTSYTSSSVNVSSNL) [IL-8RB]”, the Classification in experiment [1] is listed as 1 (A450 nm 0-1).
`CC(C)C[C@H](NC(=O)[C@H](CC(C)C)NC(=O)[C@@H](NC(=O)[C@H](CC(=O)O)NC(=O)CCCC[C@@H]1SC[C@@H]2NC(=O)N[C@@H]21)[C@@H](C)O)C(=O)N[C@@H](CC(C)C)C(=O)N[C@H](C(=O)N[C@@H](CCC(=O)O)C(=O)N[C@@H](CC(N)=O)C(=O)N[C@@H](CCC(=O)O)C(=O)NCC(=O)N[C@@H](CC(=O)O)C(=O)N[C@@H](CCCCN)C(=O)N[C@H](C(=O)N[C@@H](CCC(=O)O)C(=O)N[C@@H](CCC(=O)O)C(=O)N[C@@H](CCC(N)=O)C(=O)N[C@H](C(=O)N[C@@H](CO)C(=O)N[C@@H](Cc1ccc(O)cc1)C(=O)N[C@H](C(=O)O)C(C)C)C(C)C)[C@@H](C)O)[C@@H](C)O` [5H2B_HUMAN] (Biotin-DTLLLTENEGDKTEEQVSYV-OH; C-terminus assumed): in experiment [4], the Classification is 1 (A450 nm 0-1).
As for `CC(C)C[C@H](NC(=O)[C@H](C)NC(=O)[C@@H](NC(=O)[C@H](CCC(=O)O)NC(=O)[C@H](CCCNC(=N)N)NC(=O)[C@H](CCCNC(=N)N)NC(=O)CNC(=O)[C@H](CCC(N)=O)NC(=O)[C@H](CC(C)C)NC(=O)[C@H](CCCNC(=N)N)NC(=O)CNC(=O)CNC(=O)[C@H](CCCNC(=N)N)NC(=O)[C@H](C)NC(=O)[C@H](CO)NC(=O)[C@H](CCCNC(=N)N)NC(=O)CNC(=O)CNC(=O)[C@H](C)NC(=O)[C@H](C)NC(=O)CCCC[C@@H]1SC[C@@H]2NC(=O)N[C@@H]21)[C@@H](C)O)C(=O)O` [HPV E6 33 (modified)] (Biotin-AAGGRSARGGRLQGRRETAL-OH; C-terminus assumed), the Classification in experiment [2] (PDZ EBP50, PDZ Domain 1) is 2 (A450 nm 1-2); in experiment [2] (PDZ EBP50, PDZ Domain 2), 2 (A450 nm 1-2); in experiment [1], 1 (A450 nm 0-1); in experiment [3], 2 (A450 nm 1-2).
In the case of `CC[C@H](C)[C@H](NC(=O)[C@H](CO)NC(=O)[C@H](CCC(=O)O)NC(=O)[C@H](Cc1ccc(O)cc1)NC(=O)[C@H](CC(=O)O)NC(=O)[C@H](CC(N)=O)NC(=O)[C@H](CCC(=O)O)NC(=O)[C@H](CCCCN)NC(=O)CCCC[C@@H]1SC[C@@H]2NC(=O)N[C@@H]21)C(=O)N[C@@H](CO)C(=O)N[C@@H](CC(=O)O)C(=O)N[C@@H](CC(C)C)C(=O)N[C@@H](CCC(N)=O)C(=O)N[C@@H](CCC(N)=O)C(=O)NCC(=O)N[C@@H](CCCNC(=N)N)C(=O)N[C@@H](CC(=O)O)C(=O)N[C@H](C(=O)N[C@H](C(=O)N[C@@H](CCCNC(=N)N)C(=O)N[C@@H](CC(C)C)C(=O)O)[C@@H](C)O)[C@@H](C)CC` [PAG] (Biotin-KENDYESISDLQQGRDITRL-OH; C-terminus assumed), the Classification in experiment [3] was 2 (A450 nm 1-2); in experiment [4] it was 1 (A450 nm 0-1).
In the case of “RNIEEVYVGGKQVVPFSSSV (Biotin-RNIEEVYVGGKQVVPFSSSV) [Nedasin (s-form)]”, in experiment [1], the Classification is recorded as 1 (A450 nm 0-1).
For “GPVPGEPAKPKTSAHHATFV (Biotin-GPVPGEPAKPKTSAHHATFV)”, in experiment [4], the Classification is reported as 1 (A450 nm 0-1).
With “LASKSAEEGKQIPDSLSTDL (Biotin-LASKSAEEGKQIPDSLSTDL) [Dock2]”, the Classification was 1 (A450 nm 0-1) in experiment [2] (PDZ EBP50, PDZ Domain 1); 2 (A450 nm 1-2) in experiment [2] (PDZ EBP50, PDZ Domain 2); 1 (A450 nm 0-1) in experiment [3].
In the case of TQGFPGPATWRRISSLESEV, the Classification in experiment [1] and in experiment [5] was 1 (A450 nm 0-1) each time.
Consider `CC[C@H](C)[C@H](NC(=O)[C@H](C)NC(=O)[C@H](CC(C)C)NC(=O)[C@H](Cc1c[nH]c2ccccc12)NC(=O)[C@H](Cc1c[nH]cn1)NC(=O)[C@H](CCC(N)=O)NC(=O)[C@H](CC(C)C)NC(=O)[C@H](CCC(N)=O)NC(=O)[C@H](Cc1ccccc1)NC(=O)[C@H](CCC(N)=O)NC(=O)[C@H](CCCNC(=N)N)NC(=O)[C@@H](NC(=O)[C@H](CC(=O)O)NC(=O)[C@H](CCCNC(=N)N)NC(=O)[C@H](CCC(N)=O)NC(=O)[C@H](C)NC(=O)[C@@H](NC(=O)[C@H](CC(C)C)NC(=O)[C@H](Cc1c[nH]cn1)NC(=O)[C@H](Cc1c[nH]cn1)NC(=O)CCCC[C@@H]1SC[C@@H]2NC(=O)N[C@@H]21)C(C)C)[C@@H](C)CC)C(=O)O` [noradrenaline transporter] (Biotin-HHLVAQRDIRQFQLQHWLAI-OH; C-terminus assumed), for which, in experiment [1], the Classification is 1 (A450 nm 0-1).
Regarding `CC(C)C[C@H](NC(=O)CNC(=O)[C@@H](NC(=O)[C@H](CO)NC(=O)[C@H](CC(N)=O)NC(=O)[C@H](Cc1ccccc1)NC(=O)CNC(=O)[C@H](C)NC(=O)[C@H](C)NC(=O)[C@H](Cc1ccccc1)NC(=O)[C@@H](NC(=O)CCCC[C@@H]1SC[C@@H]2NC(=O)N[C@@H]21)[C@@H](C)O)[C@@H](C)O)C(=O)N1CCC[C@H]1C(=O)N[C@@H](Cc1c[nH]cn1)C(=O)N[C@@H](CO)C(=O)N[C@H](C(=O)N[C@H](C(=O)N[C@@H](CCCNC(=N)N)C(=O)N[C@H](C(=O)O)C(C)C)[C@@H](C)O)[C@@H](C)O` [Neuroligin] (Biotin-TFAAGFNSTGLPHSTTRV-OH; C-terminus assumed), the Classification in experiment [2] (PDZ EBP50, PDZ Domain 1) is recorded as 2 (A450 nm 1-2); in experiment [2] (PDZ EBP50, PDZ Domain 2) it was 1 (A450 nm 0-1); in experiment [5] it was 1 (A450 nm 0-1); in experiment [3], 3 (A450 nm 2-3).

The values are drawn from patent US20050282743A1, “Molecular interactions in cells” (Arbor Vita Corporation, priority 2001, published 2005).
